Measurements taken from publication PMC4545587 (Biochimica et biophysica acta, 2013).
No end group written: not given here.

Key:
eukaryotic cells = settings: cited from earlier work
[1] = system: Pseudomonas aeruginosa type 1; assay type: cell-based

Sequence: KLFKRHLKWKII [SC4]
- lytic effect on eukaryotic cells (eukaryotic cells): no apparent lytic effect
- MIC value against P. aeruginosa ([1]; type 1): ~ 18 µM
- P.a. LD50 ([1]; type 1, pH 7): 0.14 µM
